Marks after values point to notes of the source that are not given here.
How the values were obtained:
SK-MEL-28 cells = test: DAPI staining, nuclear morphology; type: cell-based, human; details: SK-MEL28, 24 h
Experimental: (§1) The cells were cultured in 24-well plates at 2 × 10^5 cells/well. Two samples (compounds 4 and 6) of three different concentrations (0.1, 1, and 5 μM) and three concentrations of DMSO (0.1, 1, 5 μM) were used to stimulate the cells. The immunofluorescent staining technique was performed according to the protocol in [92]. Thus, after 24 h of stimulation, the cells were fixed by adding 4% paraformaldehyde and incubating at room temperature for one hour. After fixation, cell permeability was performed with 2% Triton X solution in phosphate-buffered saline (PBS). After 30 min of incubation at room temperature, blocking of permeabilization was performed with 0.01% Triton X solution and incubation at RT for one hour. DAPI staining was used in a concentration of 300 nM to visualize the nuclei. The cells were analyzed by fluorescence microscope at 40× magnification using CellSens V1.15 software (Olympus, Tokyo, Japan) and Image J software.

RPMI cells = test: DAPI staining, nuclear morphology; type: cell-based, human; details: 24 h
Experimental: as §1

[1] = Compound stability in cell culture media (TLC); details: 5 μM in DMEM and EMEM, 72 h
Experimental: Prior to this assay, compound stability in cell culture media was evaluated after 72 h, using a thin-layer chromatography (TLC)-based protocol, with the necessary modifications [57, 58].
The stability of the assessed compounds in the culture media was evaluated by thin layer chromatography (TLC), this representing a viable and easy to achieve technique for this specific endpoint [57, 58]. […] The solutions were incubated for 72 h, after which the medium was extracted in CHCl3. […] The plate was successively developed with I2 vapors, UV light, and bromocresol green to determine various additional spots corresponding to some decomposition byproducts.

Bcl-XL gene, RPMI = test: Gene expression by qRT-PCR; type: cell-based, human; details: 1 μM, mean 2^∆∆Ct, DMSO 18.563
Excerpt: (§2) Apoptosis at the cellular level can be initiated through the mitochondrial intrinsic pathway, which involves the Bcl-2 family of genes that includes the anti-apoptotic Bcl-XL and Bcl-2, as well as the pro-apoptotic Bak and Bax members; the balance between the expressions of anti- and pro-apoptotic proteins ensures physiological cell death. In cancers, the alterations occurring in gene expressions due to down- or up-regulations may result in delayed apoptosis and malignant proliferation. Thus, active compounds that modify the abnormal expression of genes involved in the apoptotic process may successfully act as anticancer agents. We tested the effect of compounds 4 and 6 on the expression of anti-apoptotic (Bcl-XL and Bcl-2) and pro-apoptotic (Bak and Bax) genes (Table 4, Figure 8).
(§3) Total RNA was extracted using peqGold RNAPureTM Package (Peqlab Biotechnology GmbH, Erlangen, Germany) according to the manufacturer’s instructions, and a DS-11 spectrophotometer (DeNovix, Wilmington, DE, USA) was used to measure total concentration of RNA. Reverse transcription was performed using the Maxima® First Strand cDNA Synthesis Kit (Fermentas, St. Leon-Rot, Germany), and the mix was incubated in the Tadvanced biometra product line (Analytik Jena AG, Jena, Germany) with a thermal program of 25 °C for 10 min, 85 °C for 5 min. Quantitative real-time PCR was conducted in a Quant Studio 5 real-time PCR system, (Thermo Fisher Scientific, Inc., Waltham, MA, USA), with analysis being performed in 20 µL reactions containing Power SYBR-Green PCR Master Mix (Thermo Fisher Scientific, Inc.). Cycling conditions were: 95 °C for 10 s followed by 40 cycles of denaturing at 95 °C for 15 s, and annealing and extension at 60 °C for 1 min.

BAX gene, A375 = test: Gene expression by qRT-PCR; type: cell-based, human; details: 1 μM, mean 2^∆∆Ct, DMSO 4.063
Excerpt: as §2, §3

BAK gene, SK-Mel-28 = test: Gene expression by qRT-PCR; type: cell-based, human; details: 1 μM, mean 2^∆∆Ct, DMSO 1.383
Excerpt: as §2, §3

BAX gene, RPMI = test: Gene expression by qRT-PCR; type: cell-based, human; details: 1 μM, mean 2^∆∆Ct, DMSO 3.040
Excerpt: as §2, §3

BAX gene, SK-Mel-28 = test: Gene expression by qRT-PCR; type: cell-based, human; details: 1 μM, mean 2^∆∆Ct, DMSO 2.086
Excerpt: as §2, §3

Bcl-XL gene, SK-Mel-28 = test: Gene expression by qRT-PCR; type: cell-based, human; details: 1 μM, mean 2^∆∆Ct, DMSO 4.730
Excerpt: as §2, §3

Bcl-2 gene, A375 = test: Gene expression by qRT-PCR; type: cell-based, human; details: 1 μM, mean 2^∆∆Ct, DMSO 2.216
Excerpt: as §2, §3

Bcl-2 gene, SK-Mel-28 = test: Gene expression by qRT-PCR; type: cell-based, human; details: 1 μM, mean 2^∆∆Ct, DMSO 2.573
Excerpt: as §2, §3

Bcl-2 gene, RPMI = test: Gene expression by qRT-PCR; type: cell-based, human; details: 1 μM, mean 2^∆∆Ct, DMSO 4.063
Excerpt: as §2, §3

BAK gene, RPMI = test: Gene expression by qRT-PCR; type: cell-based, human; details: 1 μM, mean 2^∆∆Ct, DMSO 4.163
Excerpt: as §2, §3

Bcl-XL gene, A375 = test: Gene expression by qRT-PCR; type: cell-based, human; details: 1 μM, mean 2^∆∆Ct, DMSO 4.550
Excerpt: as §2, §3

BAK gene, A375 = test: Gene expression by qRT-PCR; type: cell-based, human; details: 1 μM, mean 2^∆∆Ct, DMSO 5.200
Excerpt: as §2, §3

SR = test: NCI-60 screening (SRB); type: cell-based, human; details: five-dose; for GI50 / CC50: Homo sapiens; for CC50: read-out: LC50 (the source's name)

Row | Compound | nuclear morphology (DAPI) (RPMI cells; 0.1 µM) | nuclear morphology (DAPI) (RPMI cells; 1 µM) | nuclear morphology (DAPI) (RPMI cells; 5 µM (highest concentration)) | stability in cell culture media (TLC) [1] | Expression of BAX gene, Mean (BAX gene, A375) | Expression of BAK gene, Mean (BAK gene, SK-Mel-28) | Expression of BAX gene, Mean (BAX gene, RPMI) | Expression of BAX gene, Mean (BAX gene, SK-Mel-28) | Expression of Bcl-XL gene, Mean (Bcl-XL gene, SK-Mel-28) | Expression of Bcl-2 gene, Mean (Bcl-2 gene, A375) | Expression of Bcl-2 gene, Mean (Bcl-2 gene, SK-Mel-28) | Expression of Bcl-2 gene, Mean (Bcl-2 gene, RPMI) | Expression of BAK gene, Mean (BAK gene, RPMI) | Expression of Bcl-XL gene, Mean (Bcl-XL gene, A375) | Expression of BAK gene, Mean (BAK gene, A375) | GI50 (SR) [nM] | CC50 (SR) [µM] | TGI (SR) [µM] | further results
1 | CCN1CCN(C(=O)[C@]23CCC(C)(C)C[C@H]2C2=CC[C@@H]4[C@@]5(C)C/C(=C/c6cccnc6)C(=O)C(C)(C)[C@@H]5CC[C@@]4(C)[C@]2(C)CC3)CC1 [Compound 6] | nuclear fragmentation | chromatin condensation | apoptotic bodies | no signs of decomposition | 0.590 *** | 91.283 *** | 0.640 ** | 0.140 *** | 0.003 *** | 1.166 | 0.083 ** | 0.236 *** | 11.853 ** | 0.300 | 0.516 *** | 959 | > 100 | 5.13 | nuclear morphology (DAPI) (SK-MEL-28 cells; 0.1, 1, 5 μM): dose-dependent effect was recorded in terms of membrane blebbing, nuclear condensation, and fragmentation; Expression of Bcl-XL gene, Mean (Bcl-XL gene, RPMI): 1.050 *
2 | CCN1CCN(C(=O)[C@]23CC[C@@H](C)[C@H](C)[C@H]2C2=CC[C@@H]4[C@@]5(C)CCC(=O)C(C)(C)[C@@H]5CC[C@@]4(C)[C@]2(C)CC3)CC1 [Compound 4, N-(3-oxo-ursan-12-en-28-oyl)-ethylpiperazine] | massive chromatin condensation | visible nuclear fragmentation | blebbing of the nuclear membrane | no signs of decomposition | 0.270 *** | 101.820 ** | 0.460 ** | 0.023 *** | 0.086 *** | 0.7366 ** | 0.083 * | 1.483 * | 156.243 *** | 0.500 * | 0.706 *** | – | – | – | nuclear morphology (DAPI) (SK-MEL-28 cells; 0.1 μM): intense condensation of the cell nuclei; nuclear morphology (DAPI) (SK-MEL-28 cells; 1 μM): chromatin condensation is accompanied by the formation of apoptotic bodies; nuclear morphology (DAPI) (SK-MEL-28 cells; 5 μM): incipient nuclear fragmentation
3 | CCN1CCN(C(=O)[C@]23CC[C@@H](C)[C@H](C)[C@H]2C2=CC[C@@H]4[C@@]5(C)C/C(=C/c6cccnc6)C(=O)C(C)(C)[C@@H]5CC[C@@]4(C)[C@]2(C)CC3)CC1 [Compound 9, N-(2-{3-Pyridinylidene}-3-oxoursan-12-en-28-oyl)-ethylpiperazine] | – | – | – | – | – | – | – | – | – | – | – | – | – | – | – | 2180 | > 100 | 6.35 | –
